Source: patent US8293783B2, “Use of artemisinin derivatives for the treatment of asthma and chronic obstructive pulmonary disease (COPD)” (National University of Singapore, priority 2009, dated 2012)

Key:
[1] = system: OVA-induced inflammatory cell recruitment in BALB/c mice; test: BAL fluid total and differential cell counts in OVA-induced mouse asthma model; assay type: in vivo
Procedure: (§1) Female BALB/c mice, 6 to 8 weeks old (Interfauna, East Yorkshire, UK), were sensitized and challenged with OVA as described (24). Artesunate (3, 10, and 30 mg/kg; Sigma, St. Louis, Mo.) or vehicle (6% dimethyl sulfoxide [DMSO]) in 0.1 ml saline was given by intraperitoneal injections 2 hours before each OVA aerosol challenge. Saline aerosol was used as a negative control. Animal experiments were performed according to the Institutional guidelines for Animal Care and Use Committee of the National University of Singapore. Mice were anesthetized 24 hours after the last aerosol challenge and bronchoalveolar lavage (BAL) was performed as described (24). BAL fluid total and differential cell counts, and cytokine and chemokine levels were determined as described (24). Blood was collected by cardiac puncture, and serum levels of total IgE and OVA-specific IgE, IgG1, and IgG2a levels were determined as described (24).

[2] = system: p65 NF-κB; test: Nuclear p65 NF-κB DNA-binding activity in lung tissues (TransAM ELISA kit); assay type: in vivo, mouse; conditions: 30 mg/kg; to basal level
Procedure: (§2) Female BALB/c mice, 6 to 8 weeks old (Interfauna, East Yorkshire, UK), were sensitized and challenged with OVA as described (24). Artesunate (3, 10, and 30 mg/kg; Sigma, St. Louis, Mo.) or vehicle (6% dimethyl sulfoxide [DMSO]) in 0.1 ml saline was given by intraperitoneal injections 2 hours before each OVA aerosol challenge. Saline aerosol was used as a negative control. Animal experiments were performed according to the Institutional guidelines for Animal Care and Use Committee of the National University of Singapore.
(§3) Lung and cell culture protein lysates ([…] per lane) were separated by 10% SDS-PAGE and immunoblots were developed as described (24). Immunoblots were probed with anti-Akt, anti-phospho-Akt (Ser473), anti-tuberin, anti-phosphotuberin (Ser1462), anti-p70S6K, anti-phospho-p70S6K (Ser389), anti-4E-BP1, anti phospho-4E-BP1 (Ser65), and anti-β-actin antibodies (Cell Signaling Technology, Beverly, Mass.). […] Primers for inflammatory genes are shown in Table 1 and mRNA expression was analyzed as described (24). Nuclear proteins were analyzed for NF-κB DNA-binding activity using TransAM NF-κB transcription factor assay kit (Active Motif, Carlsbad, Calif.). […]

[3] = system: human rheumatoid arthritis fibroblast-like synoviocytes; conditions: TNF-α-stimulated; cited from earlier work
[4] = system: p65 NF-κB; test: p65 NF-κB DNA-binding activity in EGF-stimulated normal human bronchial epithelial cells; assay type: cell-based; conditions: 10 μM artesunate; EGF 30 min
Procedure: (§4) To determine the effects of artesunate on OVA-specific immune responses in lymphocytes, thoracic lymph node cells were prepared as described (24). Cells were exposed to […] OVA for 72 hours. Concanavalin A (Con A, 10 μg/ml) was used as a positive control. Supernatants from parallel triplicate cultures were analyzed for cytokine levels by ELISA. Normal human bronchial epithelial cells were cultured in optimized bronchial epithelial bulletkit medium with supplements (Lonza, Basel, Switzerland). Cells were pretreated with 10 μM artesunate or vehicle (0.01% DMSO) 4 hours before stimulation with […] epidermal growth factor (EGF). Total and nuclear proteins, and mRNA were extracted from cells at specified time intervals.
as §3

[5] = system: PI3K/Akt signaling pathway; test: Immunoblotting of PI3K/Akt phosphorylation cascade in lung tissues; assay type: in vivo, mouse; conditions: 30 mg/kg; OVA-challenged mice; to the basal levels
Procedure: as §2
(§5) Lung and cell culture protein lysates ([…] per lane) were separated by 10% SDS-PAGE and immunoblots were developed as described (24). Immunoblots were probed with anti-Akt, anti-phospho-Akt (Ser473), anti-tuberin, anti-phosphotuberin (Ser1462), anti-p70S6K, anti-phospho-p70S6K (Ser389), anti-4E-BP1, anti phospho-4E-BP1 (Ser65), and anti-β-actin antibodies (Cell Signaling Technology, Beverly, Mass.). Proteins were separated by 10% SDSPAGE, probed with anti-Akt, anti-phospho-Akt (Ser473), anti-tuberin, antiphospho-tuberin (Ser1462), anti-p 70S6K, anti-phospho-p70S6K (Ser389), anti-4EBP1, and anti-phospho-4E-BP1 (Ser65), and developed by enhanced chemiluminescence reagent. β-actin was used as an internal control. The experiments were repeated for three times. Primers for inflammatory genes are shown in Table 1 and mRNA expression was analyzed as described (24). Nuclear proteins were analyzed for NF-κB DNA-binding activity using TransAM NF-κB transcription factor assay kit (Active Motif, Carlsbad, Calif.). Total mRNA was extracted using TriZol reagent and the PCR products were separated in a 2% agarose gel visualized under UV light. β-actin was used as an internal control. The experiments were repeated for three times

[6] = system: OVA-induced lung tissue eosinophilia and mucus hypersecretion in BALB/c mice; test: Histologic analysis of lung tissue (H&E, PAS) in OVA-induced mouse asthma model; assay type: in vivo; conditions: 30 mg/kg, 24 h after last OVA challenge
Procedure: Female BALB/c mice, 6 to 8 weeks old (Interfauna, East Yorkshire, UK), were sensitized and challenged with OVA as described (24). Artesunate (3, 10, and 30 mg/kg; Sigma, St. Louis, Mo.) or vehicle (6% dimethyl sulfoxide [DMSO]) in 0.1 ml saline was given by intraperitoneal injections 2 hours before each OVA aerosol challenge. Saline aerosol was used as a negative control. Animal experiments were performed according to the Institutional guidelines for Animal Care and Use Committee of the National University of Singapore. Lungs were fixed in 10% neutral formalin, paraffinized, cut into 5-μm sections, and stained with hematoxylin and eosin (H&E) for examining cell infiltration and with periodic acid-Schiff stain (PAS) for measuring mucus production. Quantitative analysis was performed blinded as described (24). Quantitative analyses of inflammatory cell infiltration and mucus production in lung sections were performed as previously described (24). […] To determine the extent of mucus production, goblet cell hyperplasia in the airway epithelium was quantified blind using a 5-point grading system: 0, no goblet cells; 1, <25%; 2, 25-50%; 3, 50-75%; 4, >75%.

[7] = system: macrophages; conditions: cited from earlier work
[8] = system: phosphoinositide 3-kinase (PI3K)/Akt signaling pathway; conditions: cited from earlier work
[9] = system: thoracic lymph node cells; test: OVA-specific responses in thoracic lymph node cultures from treated mice; assay type: cell-based, mouse
Procedure: as §4

[10] = system: normal human bronchial epithelial cells; test: Cytokine mRNA expression in EGF-stimulated normal human bronchial epithelial cells; assay type: cell-based; conditions: 10 μM artesunate; EGF 12 hours
Procedure: as §4, §5

[11] = system: OVA-induced inflammatory gene expression in lung tissues; test: Lung mRNA expression of inflammatory genes (RT-PCR); assay type: in vivo, mouse; conditions: 30 mg/kg pretreatment; OVA-challenged mice
Procedure: as §2, §5

[12] = system: peripheral blood leukocytes; test: Flow cytometric analysis of peripheral blood leukocytes; assay type: in vivo, mouse; conditions: artesunate-treated vs saline-challenged, OVA-challenged and vehicle control mice; data not shown
Procedure: BAL fluid was collected 24 hours after the last OVA or saline aerosol challenge, and total and differential cell counts were performed. […] We have conducted flow cytometric analysis of peripheral blood leukocytes obtained from saline challenged, OVA-challenged, vehicle control, and artesunate-treated mice.

[13] = system: OVA-induced AHR in BALB/c mice; test: Airway hyperresponsiveness (AHR) to methacholine in mechanically ventilated mice; assay type: in vivo, mouse; conditions: 30 mg/kg; OVA-challenged mice; methacholine 0.5-8.0 mg/ml
Procedure: Female BALB/c mice, 6 to 8 weeks old (Interfauna, East Yorkshire, UK), were sensitized and challenged with OVA as described (24). Artesunate (3, 10, and 30 mg/kg; Sigma, St. Louis, Mo.) or vehicle (6% dimethyl sulfoxide [DMSO]) in 0.1 ml saline was given by intraperitoneal injections 2 hours before each OVA aerosol challenge. Saline aerosol was used as a negative control. […] Mice were anesthetized and tracheotomy was performed as described (24). The trachea was intubated with a cannula that was connected to the pneumotach, ventilator and nebulizer. Airway resistance (RI) and dynamic compliance (Cdyn) in response to increasing concentrations of nebulized mechacholine (0.5-8.0 mg/ml) were recorded using a whole-body plethysmograph chamber (Buxco, Sharon, Conn.) as described (24). Results are expressed as a percentage of the respective basal values in response to phosphate-buffered saline (PBS).

[14] = system: OVA-induced serum Ig production in BALB/c mice; test: Serum Ig levels by ELISA in OVA-induced mouse asthma model; assay type: in vivo
Procedure: as §1

[15] = system: PI3K/Akt signaling pathway; test: Immunoblotting of EGF-stimulated normal human bronchial epithelial cells; assay type: cell-based; conditions: 10 μM artesunate, pretreated 4 h; EGF 5, 15 and 30 min
Procedure: as §4, §5

[16] = system: OVA-induced BAL fluid cytokine and chemokine levels in BALB/c mice; test: BAL fluid cytokine and chemokine levels by ELISA in OVA-induced mouse asthma model; assay type: in vivo
Procedure: as §1

[17] = system: PI3K/Akt signaling pathway; test: TNF-α-induced signalling in normal human bronchial epithelial cells; assay type: cell-based
[18] = 3, 10 and 30 mg/kg i.p. 2 h before each OVA challenge, 24 h after last challenge, dose-dependent, vs DMSO vehicle control
[19] = mice pretreated with 30 mg/kg, cells cultured 72 h with OVA, vs DMSO
[20] = 3, 10, 30 mg/kg, dose-dependent, to a lesser extent than IL-13 and eotaxin, vs DMSO control
[21] = 3, 10, 30 mg/kg, dose-dependent, vs DMSO control

C[C@H]1[C@H](OC(=O)CCC(=O)O)O[C@@H]2O[C@@]3(C)CC[C@H]4[C@H](C)CC[C@@H]1[C@@]24OO3 [Artesunate, artesunate]
eosinophil count in BAL fluid [1, 18]: drastically decreased | total cell count in BAL fluid [1, 18]: drastically decreased | lymphocyte count in BAL fluid ([1]; OVA-challenged mice): significant drop | OVA-induced NF-κB transactivation (p65 DNA-binding) in lung tissues [2]: significantly suppressed | production of IL-1β [3]: block | production of IL-6 [3]: block | production of IL-8 [3]: block | EGF-induced NF-κB transactivation (DNA binding activity) [4]: markedly inhibited | phosphorylation of 4E-BP1 in lung tissues [5]: markedly reduced | phosphorylation of Akt in lung tissues [5]: markedly reduced | phosphorylation of p70S6K in lung tissues [5]: markedly reduced | phosphorylation of tuberin in lung tissues [5]: markedly reduced | OVA-induced mucus hypersecretion (PAS) [6]: significantly halted | eosinophil-rich leukocyte infiltration in lung tissue (H&E) ([6]; vs DMSO control): markedly diminished | lipopolysaccharide-induced production of IL-6 [7]: inhibits | lipopolysaccharide-induced production of TNF-α [7]: inhibits | lipopolysaccharide-induced production of nitric oxide (NO) [7]: inhibits | expression of TLR9 ([7]; lipopolysaccharide-induced): inhibits | expression of toll-like receptor 4 (TLR4) ([7]; lipopolysaccharide-induced): inhibits | activity against the PI3K/Akt signaling pathway [8]: strong inhibitory activity | in vitro OVA-specific IL-4 production [9, 19]: significantly (P<0.05) lowered | in vitro OVA-specific IL-5 production [9, 19]: significantly (P<0.05) lowered | in vitro OVA-specific IL-13 production [9, 19]: significantly (P<0.05) lowered | in vitro OVA-specific IFN-γ production ([9]; mice treated with 30 mg/kg, cells cultured 72 h with OVA): elevated | Con A-induced production of IL-4, IL-5, IL-13 and IFN-γ ([9]; parallel cultures, Con A 10 μg/ml, data not shown): not affected | EGF-induced up-regulation of IL-6 mRNA expression [10]: noticeably blocked | EGF-induced up-regulation of IL-8 mRNA expression [10]: noticeably blocked | EGF-induced up-regulation of MCP-1 mRNA expression [10]: noticeably blocked | EGF-induced up-regulation of RANTES mRNA expression [10]: noticeably blocked | lung AMCase mRNA level [11]: strong suppression | lung E-selectin mRNA level [11]: strong suppression | lung ICAM-1 mRNA level [11]: strong suppression | lung IL-17 mRNA level [11]: strong suppression | lung IL-33 mRNA level [11]: strong suppression | lung Muc5ac mRNA level [11]: strong suppression | lung TSLP mRNA level [11]: strong suppression | lung VCAM-1 mRNA level [11]: strong suppression | lung YKL-40 mRNA level [11]: strong suppression | lung Ym-2 mRNA level [11]: strong suppression | lung iNOS mRNA level [11]: strong suppression | percentages of CD3+, CD4+, CD8+ T cells, B cells, NK cells, neutrophils and monocytes in peripheral blood [12]: Similar | dynamic compliance (Cdyn) in response to methacholine aerosol [13]: restored | lung/airway resistance (RI) in response to methacholine aerosol [13]: dramatically reduced | serum total IgE level ([14]; 24 h after last OVA aerosol challenge): no effect | serum OVA-specific IgG2a level ([14]; OVA-challenged mice): no effects | serum OVA-specific IgE level ([14]; even at the lowest dose (3 mg/kg)): strongly suppressed | serum OVA-specific IgG1 level ([14]; suppressed to a lesser extent than OVA-specific IgE): significant effects at higher dose | EGF-induced phosphorylation of 4E-BP1 [15]: markedly inhibited | EGF-induced phosphorylation of Akt [15]: markedly inhibited | EGF-induced phosphorylation of p70S6K [15]: markedly inhibited | EGF-induced phosphorylation of tuberin [15]: markedly inhibited | IL-4 level in BAL fluid [16, 20]: reduced | IL-5 level in BAL fluid [16, 20]: reduced | IL-13 level in BAL fluid [16, 21]: drastically reduced | eotaxin level in BAL fluid [16, 21]: drastically reduced | IFN-γ level in BAL fluid ([16]; 10 and 30 mg/kg): up-regulated | TNF-α-induced NF-κB DNA binding activity [17]: inhibited | TNF-α-induced phosphorylation of Akt [17]: inhibited | TNF-α-induced phosphorylation of p70 S6 kinase [17]: inhibited | TNF-α-induced phosphorylation of phosphoinositide 3-kinase (PI3K) [17]: inhibited
